Measured values reported in publication PMC4168161, “A novel approach for the discovery of chemically diverse anti-malarial compounds targeting the Plasmodium falciparum Coenzyme A synthesis pathway” (Malaria Journal, 2014).
Where “and” joins values, the source holds several entries; their conditions need not be identical. Identical values can stand only once.

What was measured:
[1] = system: P. falciparum CoA synthesis pathway; assay: Coenzyme A chemical rescue assay on P. falciparum; type: cell-based, Plasmodium falciparum; conditions: for antiplasmodial activity of control compounds upon CoA supplementation / IC50 shift upon CoA supplementation: eight-point dose response, n = 2; for antiplasmodial activity of control compounds upon CoA supplementation: fixed CoA; for CoA rescue (relative parasite number, % of untreated control): at 2 μM compound, with CoA supplementation; for IC50 shift upon CoA supplementation: fixed CoA (0.8-2 mM)
Experimental: The well-established P. falciparum imaging assay was modified to allow assessment of chemical rescue with CoA. In brief, sorbitol (5% w/v) synchronization was performed twice, approximately 8 hr apart, on each synchronization day for two consecutive ring cycles, i.e., on day 1 and 3 of assay preparation. On day 2 the culture was split to approximately 2% trophozoite parasitaemia. On day 4 the culture was split to 1-1.5% trophozoite parasitaemia, which yielded approximately 8% ring parasitaemia after 48 hr (on day 5, i.e., the day of the assay set-up). Compound stocks (10 mM in 100% DMSO) were diluted 1:25 in sterile water, less than 24 hr prior to use. An additional 1:10 dilution was performed, resulting in a 1:250 overall compound dilution and a final DMSO concentration of 0.4%. For initial screening, compounds were tested at a final 2 μM concentration. […] The known P. falciparum CoA synthesis inhibitor, panthenol, was prepared as a 100 mM solution in 4% DMSO. The final concentration of the dose response curve of panthenol started at 10 mM and was serially diluted down to 100 nM. CoA was dissolved in water. […] Five μl of the 1:25 diluted test compound or control solutions were added to 384-well CellCarrier imaging plates (PerkinElmer). For the chemical rescue, 5 μl of CoA solution were added to ‘rescue’ wells and 5 μl water to all control and reference wells, respectively. Parasite culture was added to a final concentration of 1% parasitaemia (% P) and 0.3% haematocrit (% H). Plates were incubated for 72 hr at 37°C, 5% CO2 and 95% humidity. On day 8 the permeabilization and nuclear staining buffer was prepared in PBS containing 10 μg/ml saponin, 0.01% triton X, 5 mM EDTA (all: Sigma) and 0.5 μg/ml 4′,6-diamidino-2-phenylindole (DAPI; Life Technologies). The plates were left for at least 4 hr (typically overnight), before confocal imaging on an Opera™ High Content Screening Platform (PerkinElmer) at 405 nm excitation with a 20x water objective. Automated primary image analysis was performed concurrent with the imaging process, utilizing an Acapella® software (PerkinElmer) script to determine the number of parasites based on object size and fluorescence intensity. Determination of the % growth compared to controls (2 μM artemisinin as positive and 0.4% DMSO as negative control) was performed in Microsoft® Excel 2010. Statistical analysis including IC50 determination and graphical output was performed in GraphPad Prism® 5 using non-linear regression variable slope curve fitting. Cell-based high throughput screening (HTS) entails the distinct benefit that positive hits have already proven effective against the live parasite within its natural host erythrocyte environment. Modifications of an image-based assay were undertaken to identify compounds that interfere with the P. falciparum CoA pathway. The modification involved a chemical rescue approach adapted from a similar method used to investigate apicoplast function. The principle idea of the chemical rescue approach is that supplementation of an unbranched pathway’s end product – in this case CoA - should abrogate, or at least alleviate, negative growth effects of compounds inhibiting any step in the pathway. […] To identify new potential CoA synthesis inhibitors, the CoA chemical rescue approach was used to screen 144 compounds with known antiplasmodial activity identified by HTS in the Avery laboratory, in addition to the MMV malaria box. […] Compounds which rescued growth to at least 50% of control values and two-fold difference compared to treatment alone, were regarded as partial rescue hits.

[2] = system: Plasmodium falciparum strain 3D7; assay: Plasmodium falciparum growth inhibition imaging assay; type: cell-based; conditions: for IC50: P. falciparum 3D7, 72 hr; for IC50 / P. falciparum growth: n = 3; for P. falciparum growth: 3D7, dose response; for parasite growth inhibition: 2 μM
Experimental: In vitro parasite culture was maintained in RPMI with 10 mM Hepes (Life Technologies), 50 μg/ml hypoxanthine (Sigma) and 5 mg/ml AlbuMAX II® (Life Technologies). Human O + erythrocytes were obtained from the Australian Red Cross Blood Service (Agreement No: 13-04QLD-09). The parasites were maintained at 2-8% parasitaemia (% P) at 5% haematocrit (% H), incubated at 37°C, 5% CO2, 5%O2 and 90% N2 and 95% humidity. The well-established P. falciparum imaging assay was modified to allow assessment of chemical rescue with CoA. In brief, sorbitol (5% w/v) synchronization was performed twice, approximately 8 hr apart, on each synchronization day for two consecutive ring cycles, i.e., on day 1 and 3 of assay preparation. On day 2 the culture was split to approximately 2% trophozoite parasitaemia. On day 4 the culture was split to 1-1.5% trophozoite parasitaemia, which yielded approximately 8% ring parasitaemia after 48 hr (on day 5, i.e., the day of the assay set-up). Compound stocks (10 mM in 100% DMSO) were diluted 1:25 in sterile water, less than 24 hr prior to use. An additional 1:10 dilution was performed, resulting in a 1:250 overall compound dilution and a final DMSO concentration of 0.4%. For initial screening, compounds were tested at a final 2 μM concentration. For dose response curves of the active compounds, a semi-logarithmic serial dilution (containing three data points per log) was prepared at 40 μM top concentration for test compounds and 2 μM for the positive control, artemisinin. The known P. falciparum CoA synthesis inhibitor, panthenol, was prepared as a 100 mM solution in 4% DMSO. The final concentration of the dose response curve of panthenol started at 10 mM and was serially diluted down to 100 nM. CoA was dissolved in water. The final CoA concentration for optimal rescue results was determined for each CoA batch and ranged between 0.8-2 mM. Five μl of the 1:25 diluted test compound or control solutions were added to 384-well CellCarrier imaging plates (PerkinElmer). For the chemical rescue, 5 μl of CoA solution were added to ‘rescue’ wells and 5 μl water to all control and reference wells, respectively. Parasite culture was added to a final concentration of 1% parasitaemia (% P) and 0.3% haematocrit (% H). Plates were incubated for 72 hr at 37°C, 5% CO2 and 95% humidity. On day 8 the permeabilization and nuclear staining buffer was prepared in PBS containing 10 μg/ml saponin, 0.01% triton X, 5 mM EDTA (all: Sigma) and 0.5 μg/ml 4′,6-diamidino-2-phenylindole (DAPI; Life Technologies). The plates were left for at least 4 hr (typically overnight), before confocal imaging on an Opera™ High Content Screening Platform (PerkinElmer) at 405 nm excitation with a 20x water objective. Automated primary image analysis was performed concurrent with the imaging process, utilizing an Acapella® software (PerkinElmer) script to determine the number of parasites based on object size and fluorescence intensity. Determination of the % growth compared to controls (2 μM artemisinin as positive and 0.4% DMSO as negative control) was performed in Microsoft® Excel 2010. Statistical analysis including IC50 determination and graphical output was performed in GraphPad Prism® 5 using non-linear regression variable slope curve fitting.

HEK293 cells [3] = assay: HEK293 viability assay (resazurin); type: cell-based, human; conditions: for IC50: HEK293, 72 hr, top concentration 40 μM, n = 3
Experimental: (§1) To assess cytotoxicity of compounds in dose response, a resazurin-based assay was utilized to determine cell viability. In brief, HEK293 cells were grown in DMEM medium (Life Technologies) containing 10% foetal calf serum (FCS; Gibco). Cells were trypsinized, counted and seeded at 2,000 cells per well in 45 μl media into TC-treated 384-well plates (Falcon) and left to adhere overnight at 37°C, 5% CO2 and 95% humidity.
(§2) Test compounds were prepared as described above, to give a top final test concentration of 40 μM, 0.4% DMSO. Plates were incubated for 72 hr at 37°C, 5% CO2 and 95% humidity, then the media was removed and replaced by 35 μl of 44 μM resazurin in DMEM without FCS. The plates were incubated for another 4-6 hr at 37°C, 5% CO2 and 95% humidity before reading on an EnVision® Plate Reader (PerkinElmer) using fluorescence excitation/emission settings of 530 nm/595 nm. Determination of the% growth compared to controls (40 μM puromycin as positive and 0.4% DMSO as negative control) was performed in Microsoft® Excel 2010. Statistical analysis including IC50 determination and graphical output was performed in GraphPad Prism® 5 using nonlinear regression variable slope curve fitting.

HEK293 cells [4] = assay: CoA chemical rescue on HEK293 cells; type: cell-based, human; conditions: dose response with and without CoA, n = 2
Experimental: as §1
as §2, with “Plates” for “Test compounds were prepared as described above, to give a top final test concentration of 40 μM, 0.4% DMSO. Plates”

Compound	antiplasmodial activity of control compounds upon CoA supplementation [1]	IC50 (HEK293 cells [3])	CoA rescue (relative parasite number, % of untreated control) [1]	IC50 shift upon CoA supplementation [1]	cytotoxic effect on HEK293 cells upon CoA addition (HEK293 cells [4])	further results
CCc1nc(N)nc(N)c1-c1ccc(Cl)cc1 [pyrimethamine, reference compound]	not reduced by CoA supplementation					
C[C@@H]1CC[C@H]2[C@@H](C)C(=O)O[C@@H]3O[C@@]4(C)CC[C@@H]1[C@]32OO4 [artemisinin, reference compound]	not reduced by CoA supplementation					
Cc1ccc(C(C)C)c(OCc2nc3ccccc3n2C)c1 [Amb1541406]		> 40 µM	80% rescue at 2 μM	1.5 times		inhibition of P. falciparum 3D7 ([2]; at 40 μM): 85% inhibition at 40 μM
CC(=O)C1=C(c2ccccc2)C(=O)c2ccccc2C1=O [Amb4317088]		2.33 µM	80% rescue at 2 μM	more than doubled	reduced upon CoA addition	IC50 [2]: 1.23 µM
CC(C)(CO)C(O)C(=O)NCCCO (stereo not shown) [Panthenol, panthenol, reference compound]	counteracted by CoA				completely negate	P. falciparum growth [2]: dose-dependent P. falciparum growth inhibitor; cytotoxicity against HEK293 cells (HEK293 cells [3]; at 40 μM): cytotoxic effect; CoA rescue of growth inhibitory effect ([1]; CoA supplementation between 1 and 2 mM): fully rescued
OC1CCCCC1C1(NC(=S)Nc2ccccc2)CCCCC1 (stereo not shown) [Amb2368822/(MMV665980)]		> 40 µM	80% rescue at 2 μM	more than doubled		parasite growth inhibition ([2]; MMV malaria box screen): 27%; parasite growth inhibition ([2]; original single dose screen, focussed compound library plate): 66%; parasite growth inhibition ([2]; retested twice from freshly dissolved solid): 98% and 90%; compound stability (inferred from lower activity of stored stock solution) ([2]; 100% DMSO stock at -20°C): potentially unstable; SI (selectivity index) ([2]; HEK293 IC50 value divided by P. falciparum IC50 value): > 6.3; IC50 [2]: 6.31 µM; IC50 ([2]; listed as Amb2368822): 6.3 µM
CC(C)(COP(=O)(O)OP(=O)(O)OC[C@H]1O[C@@H](n2cnc3c(N)ncnc32)[C@H](O)[C@@H]1OP(=O)(O)O)[C@@H](O)C(=O)NCCC(=O)NCCS [CoA, Coenzyme A]						P. falciparum growth [2]: not significantly altered
COc1ccc(C[C@H](N)C(=O)N[C@H]2[C@@H](O)[C@H](n3cnc4c(N(C)C)ncnc43)O[C@@H]2CO)cc1 [puromycin, reference compound]					no impact	
